Laboratory results from article PMC8887894, “Pyruvate:ferredoxin oxidoreductase and low abundant ferredoxins support aerobic photomixotrophic growth in cyanobacteria” (eLife, 2022).

Target: T1, SynLPD (dihydrolipoyl dehydrogenase, E3 subunit of the PDH complex) (Synechocystis sp. PCC 6803, UniProt P72740)
T1 construct: gene lpdA
T1 sequence (P72740 2-474): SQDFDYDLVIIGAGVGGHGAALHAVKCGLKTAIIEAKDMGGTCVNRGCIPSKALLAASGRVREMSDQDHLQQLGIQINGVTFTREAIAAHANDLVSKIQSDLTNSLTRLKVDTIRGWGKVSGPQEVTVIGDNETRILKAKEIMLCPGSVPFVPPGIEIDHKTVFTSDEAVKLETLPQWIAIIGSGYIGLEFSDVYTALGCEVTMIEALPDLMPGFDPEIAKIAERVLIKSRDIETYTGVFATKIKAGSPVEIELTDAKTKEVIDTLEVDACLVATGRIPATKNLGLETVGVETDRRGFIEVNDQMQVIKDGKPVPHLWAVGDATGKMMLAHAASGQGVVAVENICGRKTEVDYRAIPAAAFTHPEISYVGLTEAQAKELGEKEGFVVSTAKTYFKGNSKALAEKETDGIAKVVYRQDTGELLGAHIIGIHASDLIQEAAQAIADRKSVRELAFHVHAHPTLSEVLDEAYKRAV
Experiment: NAD+ reduction at […] nm; Ki from slopes of Lineweaver-Burk plots
Format: biochemical

- Ki: 38.3 µM
SMILES: NC(=O)C1=CN([C@@H]2O[C@H](COP(=O)(O)OP(=O)(O)OC[C@H]3O[C@@H](n4cnc5c(N)ncnc54)[C@H](O)[C@@H]3O)[C@@H](O)[C@H]2O)C=CC1 [NADH]
